From publication PMC5853561, “Affinity purification with metabolomic and proteomic analysis unravels diverse roles of nucleoside diphosphate kinases” (Journal of Experimental Botany, 2017)

How the values were obtained:
[1] = target: T1, NDPK1 recombinant protein (AtNDPK1) (Arabidopsis thaliana, UniProt P39207); test: coupled pyruvate kinase-lactate dehydrogenase assay, NADH at […] nm; format: biochemical; settings: inhibitor; 500 uM cGMP; ATP and 4 mM TDP as substrates
T1 construct: gene NDK1; recombinant protein from commercial supplier (MyBioSource)
T1 sequence (P39207 1-149): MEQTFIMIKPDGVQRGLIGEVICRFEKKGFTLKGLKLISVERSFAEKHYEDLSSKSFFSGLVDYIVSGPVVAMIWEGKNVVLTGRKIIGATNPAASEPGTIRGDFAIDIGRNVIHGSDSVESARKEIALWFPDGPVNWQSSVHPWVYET

[2] = target: T1, NDPK1 recombinant protein (AtNDPK1); test: as above; format: biochemical; settings: phosphate acceptor, ATP as donor; 4 mM TDP

SMILES | specific activity, % of control at 500 uM [1] | coupled pyruvate kinase-lactate dehydrogenase assay, NADH at 340 nm [2]
Nc1nc2c(ncn2[C@@H]2O[C@@H]3COP(=O)(O)O[C@H]3[C@H]2O)c(=O)[nH]1 [3',5'-cGMP] | 51% | –
Cc1cn([C@H]2C[C@H](O)[C@@H](COP(=O)(O)OP(=O)(O)O)O2)c(=O)[nH]c1=O [TDP] | – | TDP was used as a NDPK1 substrate and phosphate group acceptor
